In test [1] the target is T1, BTK (Homo sapiens (Human), UniProt Q06187). Nature of the test: In Vitro BTK Kinase Assay: BTK-POLYGAT-LS ASSAY. It is filed as biochemical. Conditions: ATP 10 μM, polyGAT 100 nM, BTK 0.25 nM, 30 minutes. The method, boiled down:
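BTK (0.25 nM final) with 10 μM ATP and 100 nM polyGAT in pH 7.5 Tris buffer with MgCl2, DTT, Triton X-100 and casein; compound titrated 4-fold. Reaction 30 min, stopped with EDTA. Phosphorylation detected by TR-FRET with Tb-PY20 antibody after 45 min at room temperature; IC50 reported.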

For test [2], the target named is T1, BTK. Put plainly: In Vitro PD Assay in Human Whole Blood (pBTK assay). It is filed as cell-based. Conditions: 37° C. for 30 min, 50% inhibition of ECL signal. The method, boiled down: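 Phospho-BTK was measured by total-BTK capture and phosphotyrosine detection in lysates of human heparinized whole blood. Vehicle samples lysed with or without phosphatase inhibitors defined the high and low controls.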

SMILES strings stand for the structures. Bounds are passed on as bounds.

The IC50 is the concentration that inhibits the measured activity by half. Read a high IC50 as weaker potency.

T1 sequence (Q06187 whole entry): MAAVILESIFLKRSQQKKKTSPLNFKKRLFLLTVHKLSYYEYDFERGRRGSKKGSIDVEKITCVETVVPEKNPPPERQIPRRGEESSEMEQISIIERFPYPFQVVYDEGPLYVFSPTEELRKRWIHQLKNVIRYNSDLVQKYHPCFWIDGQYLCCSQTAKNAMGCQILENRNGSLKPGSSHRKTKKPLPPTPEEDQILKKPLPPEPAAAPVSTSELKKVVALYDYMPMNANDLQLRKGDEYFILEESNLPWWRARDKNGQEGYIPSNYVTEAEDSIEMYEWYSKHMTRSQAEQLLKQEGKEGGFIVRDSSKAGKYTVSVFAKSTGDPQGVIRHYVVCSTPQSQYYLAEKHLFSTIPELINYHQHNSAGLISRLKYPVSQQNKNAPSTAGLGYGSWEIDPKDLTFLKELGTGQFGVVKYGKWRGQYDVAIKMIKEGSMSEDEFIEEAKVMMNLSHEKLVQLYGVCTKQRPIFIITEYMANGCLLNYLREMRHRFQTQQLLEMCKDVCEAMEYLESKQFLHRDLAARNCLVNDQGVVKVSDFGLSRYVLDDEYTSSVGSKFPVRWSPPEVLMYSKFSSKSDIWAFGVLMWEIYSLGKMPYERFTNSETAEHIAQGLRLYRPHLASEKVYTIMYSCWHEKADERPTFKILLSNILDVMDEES

Regarding `CC(C)(C)c1nc(C(=O)N[C@@H]2CCCOc3cc(-c4ccnc(NC(=O)C5CC5)c4)ccc32)no1` [Compound 54, (R)-5-(tert-butyl)-N-(8-(2-(cyclopropanecarboxamido)pyridin-4-yl)-2,3,4,5-tetrahydrobenzo[b]oxepin-5-yl)-1,2,4-oxadiazole-3-carboxamide], the IC50 on BTK [1] is not above 0.001 µM; at BTK [2] it was 0.1 to 0.5 µM.

As to `Cc1cc(-c2ccnc(NC(=O)C3CC3)c2)ccc1[C@@H](C)NC(=O)c1noc(C(C)(C)C)n1` [Compound 19, (R)-5-(tert-butyl)-N-(1-(4-(2-(cyclopropanecarboxamido)pyridin-4-yl)-2-methylphenyl)ethyl)-1,2,4-oxadiazole-3-carboxamide], the concentration for half-maximal inhibition (IC50) against BTK [1] is not above 0.001 µM; against BTK [2] it was not above 0.1 µM.

With `Cc1cc(-c2cc(NC(=O)C3CC3)ncc2F)ccc1[C@@H](C)NC(=O)c1noc(C(C)(C)C)n1` [Compound 20, (R)-5-(tert-butyl)-N-(1-(4-(2-(cyclopropanecarboxamido)-5-fluoropyridin-4-yl)-2-methylphenyl)ethyl)-1,2,4-oxadiazole-3-carboxamide], the IC50 against BTK [1] is not above 0.001 µM; against BTK [2], not above 0.1 µM.

Turning to `Cc1c(CNC(=O)c2noc(C(C)(C)C)n2)cc(F)c(-c2ccnc(NC(=O)C3CC3)c2)c1F` [Compound 61, 5-(tert-butyl)-N-(4-(2-(cyclopropanecarboxamido)pyridin-4-yl)-3,5-difluoro-2-methylbenzyl)-1,2,4-oxadiazole-3-carboxamide], the figures for the half-inhibitory concentration (IC50) against BTK [1] and at BTK [2] were not above 0.001 µM and 0.5 to 10 µM, respectively.

As to `CC(C)(C)c1nc(C(=O)NCc2ccc(-c3ccnc(NC(=O)C4CC4)c3)cc2C(F)(F)F)no1` [Compound 16, 5-(tert-butyl)-N-(4-(2-(cyclopropanecarboxamido)pyridin-4-yl)-2-(trifluoromethyl)benzyl)-1,2,4-oxadiazole-3-carboxamide], the figures for the concentration for half-maximal inhibition (IC50) against BTK [1] and on BTK [2] were not above 0.001 µM and 0.1 to 0.5 µM, respectively.

As for `CCc1cc(-c2ccnc(NC(=O)C3CC3)c2)ccc1CNC(=O)c1noc(C(C)(C)C)n1` [Compound 73, 5-(tert-butyl)-N-(4-(2-(cyclopropanecarboxamido)pyridin-4-yl)-2-ethylbenzyl)-1,2,4-oxadiazole-3-carboxamide], the IC50 against BTK [1] is not above 0.001 µM; against BTK [2] it was 0.5 to 10 µM.

Turning to `C[C@@H](NC(=O)c1noc(C(C)(C)C)n1)c1cc(F)c(-c2ccnc(NC(=O)C3CC3)c2)cc1Cl` [Compound 76, (R)-5-(tert-butyl)-N-(1-(2-chloro-4-(2-(cyclopropanecarboxamido)pyridin-4-yl)-5-fluorophenyl)ethyl)-1,2,4-oxadiazole-3-carboxamide], the figures for the half-maximal inhibitory concentration (IC50) against BTK [1] and at BTK [2] were not above 0.001 µM and 0.5 to 10 µM, respectively.

As for `CC(C)(C)c1noc(C(=O)N[C@@H]2CCCCc3cc(-c4ccnc(NC(=O)[C@@H]5C[C@H]5C(F)(F)F)c4)ccc32)n1` [Compound 52, 3-(tert-butyl)-N-((R)-2-(2-((1R,2R)-2-(trifluoromethyl)cyclo-propane-1-carboxamido)pyridin-4-yl)-6,7,8,9-tetrahydro-5H-benzo[7]annulen-5-yl)-1,2,4-oxadiazole-5-carboxamide], the IC50 against BTK [1] is not above 0.001 µM; at BTK [2], 0.5 to 10 µM.

For the compound `C[C@@H](NC(=O)c1noc(C(C)(C)C)n1)c1ccc(-c2ccnc(NC(=O)C3CC3)c2)cc1Cl` [Compound 21, (R)-5-(tert-butyl)-N-(1-(2-chloro-4-(2-(cyclopropanecarboxamido)pyridin-4-yl)phenyl)ethyl)-1,2,4-oxadiazole-3-carboxamide], the values for the IC50 on BTK [1] and against BTK [2] were not above 0.001 µM and not above 0.1 µM, respectively.

As to `C[C@@H](NC(=O)c1noc(C(C)(C)C)n1)c1ccc(-c2ccnc(NC(=O)C3CC3)c2)cc1OC(F)(F)F` [Compound 83, (R)-5-(tert-butyl)-N-(1-(4-(2-(cyclopropanecarboxamido)pyridin-4-yl)-2-(trifluoromethoxy)phenyl)ethyl)-1,2,4-oxadiazole-3-carboxamide], the values for the IC50 against BTK [1] and on BTK [2] were 0.001 to 0.01 µM and 0.5 to 10 µM, respectively.

Regarding `Cc1c(CNC(=O)c2nn(C(C)(C)C)cc2F)ccc(-c2ccnc(NC(=O)C3CC3)c2)c1F` [Compound 31, 1-(tert-butyl)-N-(4-(2-(cyclopropanecarboxamido)pyridin-4-yl)-3-fluoro-2-methylbenzyl)-4-fluoro-1H-pyrazole-3-carboxamide], the IC50 at BTK [1] was not above 0.001 µM; at BTK [2] it was 0.5 to 10 µM.

As to `Cc1cc(-c2ccnc(NC(=O)C3CC3)c2)ccc1CNC(=O)c1cn(C(C)(C)C)nn1` [Compound 89, 1-(tert-butyl)-N-(4-(2-(cyclopropanecarboxamido)pyridin-4-yl)-2-methylbenzyl)-1H-1,2,3-triazole-4-carboxamide], the IC50 is 0.001 to 0.01 µM on BTK [1] and 0.1 to 0.5 µM at BTK [2].

Consider `Cc1cc(-c2ccnc(NC(=O)C3CC3)c2)ccc1CNC(=O)c1noc(C(C)(C)CO)n1` [Compound 35, N-(4-(2-(cyclopropanecarboxamido)pyridin-4-yl)-2-methylbenzyl)-5-(1-hydroxy-2-methylpropan-2-yl)-1,2,4-oxadiazole-3-carboxamide], for which the IC50 against BTK [1] lay in the range of 0.001 to 0.01 µM; against BTK [2], 0.5 to 10 µM.

`Cc1c(CNC(=O)c2noc(C(C)(C)C)n2)ccc(-c2cc(NC(=O)C3CC3)ncc2F)c1F` [Compound 57, 5-(tert-butyl)-N-(4-(2-(cyclopropanecarboxamido)-5-fluoropyridin-4-yl)-3-fluoro-2-methylbenzyl)-1,2,4-oxadiazole-3-carboxamide]: the IC50 against BTK [1] was not above 0.001 µM; at BTK [2], 0.5 to 10 µM.

For `Cc1cc(-c2ccnc(NC(=O)C3CC3)c2)ccc1CNC(=O)c1nnc(C(C)(C)C)o1` [Compound 90, 5-(tert-butyl)-N-(4-(2-(cyclopropanecarboxamido)pyridin-4-yl)-2-methylbenzyl)-1,3,4-oxadiazole-2-carboxamide], the values for the IC50 against BTK [1] and against BTK [2] were 0.001 to 0.01 µM and 0.1 to 0.5 µM, respectively.
